Test results as given in article PMC5680089 (Science signaling, 2017).

Legend:
[1] = target: S1P1-GFP (U2OS) (Homo sapiens, UniProt P21453); test: receptor internalization, imaging; assay type: cell-based; settings: agonist; […] min, […]°C
[2] = target: ApoM-Fc (Homo sapiens, UniProt O95445); test: intrinsic Trp fluorescence quenching; assay type: binding
Sequence of ApoM-Fc (O95445 20-188 limits assumed): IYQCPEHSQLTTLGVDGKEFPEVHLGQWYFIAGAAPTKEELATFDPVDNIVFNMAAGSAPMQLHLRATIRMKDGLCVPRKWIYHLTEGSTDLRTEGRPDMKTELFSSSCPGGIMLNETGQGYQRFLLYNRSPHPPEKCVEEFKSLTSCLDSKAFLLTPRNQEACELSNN

Sequence of S1P1-GFP (U2OS) (P21453 whole entry): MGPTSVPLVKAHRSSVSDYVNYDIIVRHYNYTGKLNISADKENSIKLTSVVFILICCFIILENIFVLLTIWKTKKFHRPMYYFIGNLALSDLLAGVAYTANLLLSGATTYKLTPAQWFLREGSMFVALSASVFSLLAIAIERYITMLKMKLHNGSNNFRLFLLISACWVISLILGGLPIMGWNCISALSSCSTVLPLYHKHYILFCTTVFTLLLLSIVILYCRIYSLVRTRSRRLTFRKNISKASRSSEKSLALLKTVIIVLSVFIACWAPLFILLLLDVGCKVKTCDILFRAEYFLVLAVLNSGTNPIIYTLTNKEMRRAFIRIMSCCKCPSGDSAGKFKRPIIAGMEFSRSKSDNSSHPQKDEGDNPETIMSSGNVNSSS

| Compound | receptor internalization, imaging [1] | EC50 [2] [nM] |
| --- | --- | --- |
| CCCCCCCCc1ccc(CCC(N)(CO)COP(=O)(O)O)cc1 (centres unmarked) [FTY720-P] | lower than that induced by FTY720-P, a potent and irreversible inducer of S1P1 endocytosis | – |
| CCCCCCCCCCCCC/C=C/[C@@H](O)[C@@H](N)COP(=O)(O)O [S1P] | – | ~220 |
